pIC50: −log10 of the molar value. Like-named read-outs stand apart in the source and are kept apart here.
Legend:
[1] = molecular target: T1, PfDHODH (Plasmodium falciparum, UniProt Q08210); test: biochemical; parameters: PfDHODH enzyme inhibition IC50; conditions: read-out: >50
T1 sequence (Q08210 1-569): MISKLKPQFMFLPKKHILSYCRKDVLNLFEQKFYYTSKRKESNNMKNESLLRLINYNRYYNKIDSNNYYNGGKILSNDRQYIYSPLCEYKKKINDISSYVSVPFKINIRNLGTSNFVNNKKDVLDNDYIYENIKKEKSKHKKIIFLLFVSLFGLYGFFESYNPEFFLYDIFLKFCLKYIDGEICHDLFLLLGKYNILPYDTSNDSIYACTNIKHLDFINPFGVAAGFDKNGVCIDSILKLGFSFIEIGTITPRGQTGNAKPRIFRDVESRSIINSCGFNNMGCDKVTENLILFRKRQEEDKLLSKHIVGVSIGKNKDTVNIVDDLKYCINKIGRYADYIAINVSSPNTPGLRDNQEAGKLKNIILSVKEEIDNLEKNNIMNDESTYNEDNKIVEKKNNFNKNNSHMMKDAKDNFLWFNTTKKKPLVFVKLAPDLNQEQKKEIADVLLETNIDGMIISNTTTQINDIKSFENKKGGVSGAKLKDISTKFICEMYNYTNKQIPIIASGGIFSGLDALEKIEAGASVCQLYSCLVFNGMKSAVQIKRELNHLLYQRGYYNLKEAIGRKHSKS

[2] = system: T2, Plasmodium falciparum 3D7; test: microbe, parasite or virus in culture; parameters: species or system P. falciparum blood stage culture; whole-cell asexual blood stage P. falciparum growth inhibition; conditions: Avery assay, read-out: 3D7 / IC50nM
T2 construct: 3D7
Procedure: (§1) To confirm the promise of the two starting points OSM-S-5 and -6, they were evaluated against 3D7 (drug-sensitive) and K1 (chloroquine resistant) strains of Plasmodium falciparum in a whole cell assay and against HEK-293 cells as a cytotoxicity marker (Table SB1, Biological Protocols; tables with the prefix “SB” may be found in the Supporting Information). Biological data may be browsed in a static data set taken as a snapshot for this paper (Data Sets S1 (Excel), S2 (SDF)), online in a database constructed through periodic batch uploads,[68] or in a “living database” to which may be added future data;[69] the latter may be visualized in a web browser[70] using an open source system that was recently deployed in the Wikipedia Chemical Structure Explorer,[71] or the data may be downloaded and visualized offline with proprietary (Figure S4)[72] or open source (Figure S5)[73] tools). The evaluation was performed in three different institutions using different assays and widely employed controls; controls are important to assess reproducibility and interassay variability[74] but also to minimize possible bias in evaluating compounds where there are pre-existing data from other researchers already in the public domain (Figure S6).[75]

[3] = system: T3, Plasmodium falciparum K1 (chloroquine resistant); test: microbe, parasite or virus in culture; parameters: species or system P. falciparum blood stage culture; whole-cell asexual blood stage P. falciparum growth inhibition
T3 construct: K1
Procedure: as §1

[4] = in vitro; parameters: cytotoxicity counter-screen on HEK293 cells; conditions: human, hek293 cells; read-out: HEK 293 / IC50nM
Procedure: as §1

[5] = molecular target: T4, hERG (human ether-à-go-go-related gene ion channel) (Homo sapiens, UniProt Q12809); test: cell-based; parameters: hERG channel inhibition counterscreen; conditions: read-out: hERG pIC50 (converted)
T4 construct: gene KCNH2
Excerpt: There is increasing awareness of the importance for drug candidates of inhibition of hERG (the human ether-à-go-go-related gene ion channel), which is sensitive to blockade by many drug-like structures. Such blockage has led to a number of prominent postmarketing withdrawals.[103] Regulators are sensitive to any hERG activity, and a hERG counterscreen is often now run early in hit characterization and series prioritization.

[6] = system: Plasmodium falciparum mature stage V gametocytes (DGFA); test: microbe, parasite or virus in culture; parameters: dual gamete formation assay, inhibition of male and female gamete formation; conditions: 24 h
Procedure: (§2) The discrepancy in the data arising from these two gametocyte assays may arise from the slightly different cell biology assayed (stage IV/V gametocytes vs stage V mature gametocytes) or most likely is a function of the relative compound exposure times (96 h vs 24 h).

[7] = in vitro; parameters: plasma stability, half-life and per cent remaining; conditions: plasma; plasma Mouse; read-out: t1/2 plasma Mouse
Procedure: (§3) Representative compounds from both subseries were evaluated in an oral in vivo mouse trial (Data Set S22). The original starting points OSM-S-5 and -6 (Figure 2) were chosen along with NN representative OSM-S-35 (Figure 4). […] It is plausible that at least some of the arylpyrrole ester compounds would be degraded by general hydrolysis during absorption, and this could explain their inactivity in the mouse model despite their more favorable (although still high) cLogP values. […] Esterase activity is higher in rodents than in other species,[102] as confirmed by using p-nitrophenol acetate as a control compound in this assay.

[8] = in vitro; parameters: stability in mouse plasma; conditions: plasma; mouse plasma; read-out: t1/2 plasma Mouse
Procedure: as §3

[9] = system: T5, Plasmodium falciparum Pfal (3D7); test: microbe, parasite or virus in culture; parameters: species or system erythrocytes; P. falciparum asexual blood-stage whole-cell growth inhibition, IC50; conditions: 3D7, Erythrocyte, lab named in column head
T5 construct: 3D7
Procedure: as §1

[10] = system: T6, Plasmodium falciparum Pfal (K1); test: microbe, parasite or virus in culture; parameters: species or system erythrocytes; P. falciparum asexual blood-stage whole-cell growth inhibition, IC50; conditions: K1, Erythrocyte, lab named in column head
T6 construct: K1
Procedure: as §1

[11] = molecular target: T1, PfDHODH; test: biochemical; parameters: PfDHODH enzyme inhibition IC50; conditions: read-out: DHODH
Excerpt: (§4) The potency of the near neighbor set led to an in silico target prediction study being performed on OSM-S-39 (Text S11). The method employed a naive Bayes statistical model identifying molecular structural features of small molecules with protein targets, using the ChEMBL database. Similar statistical approaches based on known activities of compounds have been successfully applied to identify targets of antitubercular compounds.[112]−[114] A total of 1,287 proteins were included for which at least 50 active compounds were known with activities <10 μM, with the other compounds in the database comprising the inactives. After the OSM compounds were scored against each target, the scores obtained were standardized by comparison with scores obtained through comparison with a random set of >10K compounds. The prediction list was culled for proteins relevant to malaria (3D7 proteome), and the analysis gave as the most likely candidate targets, in order of significance, carboxy-terminal domain RNA polymerase II polypeptide A small phosphatase 1 (Q8I3U9), dihydroorotate dehydrogenase (DHODH, Q08210), SUMO-activating enzyme subunit 2 (Q8I553) and 1 (Q8IHS2), and cyclin-dependent kinase 1 (P61075). […] A line of inquiry remaining open is the equivalent assays against the other targets identified in the in silico prediction.

[12] = system: Plasmodium falciparum Pfal (strain not named in column head); test: microbe, parasite or virus in culture; parameters: species or system P. falciparum blood stage culture; whole-cell asexual blood stage P. falciparum growth inhibition
Procedure: as §1

[13] = system: Plasmodium falciparum late stage (IV-V) gametocytes; test: microbe, parasite or virus in culture; parameters: species or system P. falciparum gametocytes; late stage (IV-V) gametocyte viability assay; conditions: 96 h, read-out: Late Stage Gametocyte (Avery)
Procedure: as §2, with “There are relatively few compounds effective against the gametocyte stage of the parasite,[12],[13] though such compounds are important in the prevention of disease transmission. Four compounds found to be active in the asexual assay were evaluated against late stage (IV–V) gametocytes. […] The” for “The”

[14] = system: HEK293; test: cells; parameters: cytotoxicity counter-screen on HEK293 cells; conditions: Homo sapiens, cytotoxicity
Procedure: as §1

[15] = in vitro; parameters: HepG2 cytotoxicity beside the liver stage assay; conditions: human, hepg2 cells
Excerpt: (§5) Of particular note is the striking potency of the nontoxic compound OSM-S-38, which may at this level provide protection from malaria to people who have been treated with the compound after an infectious bite.

[16] = molecular target: T1, PfDHODH; test: biochemical; parameters: PfDHODH enzyme inhibition assay, IC50; conditions: read-out: DHODH
Excerpt: as §4

[17] = in vitro; parameters: microsomal stability with NADPH, LC-MS, half-life and CLint; conditions: human, liver microsomes, HLM
Procedure: (§6) The two original GSK hits (OSM-S-5 and -6) and six NN compounds were evaluated for their kinetic solubility in phosphate buffer and their metabolic stability in human liver microsomes (Table SB5, Data Sets S20 and S21).

[18] = in vitro; parameters: metabolic stability in mouse liver microsomes, LC-MS, NADPH, 0.4 mg/mL protein; conditions: liver microsomes, mouse liver microsomes
Procedure: as §6

[19] = system: Plasmodium berghei Pb Liver Stage; test: microbe, parasite or virus in culture; parameters: liver stage assay, sporozoites in liver cells; conditions: HepG2
Excerpt: as §5

[20] = in vitro; parameters: metabolic stability in human liver microsomes, LC-MS, NADPH, 0.4 mg/mL protein; conditions: liver microsomes, human liver microsomes
Procedure: as §6

[21] = system: Plasmodium berghei Pb Liver Stage; test: microbe, parasite or virus in culture; parameters: P. berghei sporozoite liver stage development inhibition, IC50; conditions: HepG2
Excerpt: as §5

[22] = Avery assay, read-out: K1 / IC50nM

T4 sequence (Q12809 whole entry): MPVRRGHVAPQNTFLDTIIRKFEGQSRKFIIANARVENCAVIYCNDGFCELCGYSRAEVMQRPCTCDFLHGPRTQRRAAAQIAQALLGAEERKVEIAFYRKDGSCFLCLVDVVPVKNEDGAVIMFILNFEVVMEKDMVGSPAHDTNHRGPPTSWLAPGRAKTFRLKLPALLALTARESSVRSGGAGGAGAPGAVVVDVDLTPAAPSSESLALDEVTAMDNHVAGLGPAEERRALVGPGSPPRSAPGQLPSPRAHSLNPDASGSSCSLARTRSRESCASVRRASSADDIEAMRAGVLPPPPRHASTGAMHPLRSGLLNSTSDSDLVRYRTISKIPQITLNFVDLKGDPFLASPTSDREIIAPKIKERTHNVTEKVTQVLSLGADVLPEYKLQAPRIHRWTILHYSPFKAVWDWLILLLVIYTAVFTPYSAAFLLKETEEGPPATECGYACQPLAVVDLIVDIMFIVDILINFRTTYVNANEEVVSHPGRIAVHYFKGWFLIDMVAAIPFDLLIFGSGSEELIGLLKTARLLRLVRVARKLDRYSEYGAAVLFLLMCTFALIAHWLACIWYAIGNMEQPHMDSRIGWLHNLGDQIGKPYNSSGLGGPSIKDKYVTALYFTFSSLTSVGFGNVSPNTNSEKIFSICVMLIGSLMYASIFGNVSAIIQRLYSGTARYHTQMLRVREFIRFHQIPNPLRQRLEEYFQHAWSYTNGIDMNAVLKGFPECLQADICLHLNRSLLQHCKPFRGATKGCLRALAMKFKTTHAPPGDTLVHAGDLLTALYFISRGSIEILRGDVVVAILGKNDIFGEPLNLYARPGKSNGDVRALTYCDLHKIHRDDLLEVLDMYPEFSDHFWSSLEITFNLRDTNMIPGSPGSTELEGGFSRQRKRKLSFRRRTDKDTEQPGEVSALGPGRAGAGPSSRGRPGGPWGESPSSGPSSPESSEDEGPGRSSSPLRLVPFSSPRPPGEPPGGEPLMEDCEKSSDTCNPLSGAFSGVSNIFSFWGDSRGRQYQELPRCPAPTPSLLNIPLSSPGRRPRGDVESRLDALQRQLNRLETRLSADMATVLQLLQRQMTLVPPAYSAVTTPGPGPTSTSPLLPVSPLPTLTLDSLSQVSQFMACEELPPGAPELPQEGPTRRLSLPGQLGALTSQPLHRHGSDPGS

CC(C)=CCC1=C(O)C(=O)c2ccccc2C1=O [Lapachol]
pIC50 [1]: < 4.00

CN(Cc1cnc2nc(N)nc(N)c2n1)c1ccc(C(=O)N[C@@H](CCC(=O)O)C(=O)O)cc1 [Methotrexate]
pIC50 [2]: 7.59
pIC50 [3, 22]: 7.60
CC50 [4]: 11.8 nM

Cc1cc(C(=O)OCC(N)=O)c(C)n1-c1ccc(F)cc1 [OSM-S-5]
IC50 [5]: > 31600 nM
inhibition at 1 µM ([6]; female gametocytes): 13.5%
inhibition at 1 µM ([6]; male gametocytes): 5.1%
half-life [7]: 1.9 h
half-life [8]: 1.9 h
pIC50 ([9]; read-out: Pfal IC50 (Batra)): 6.24
pIC50 ([10]; read-out: Pfal (K1) IC50 (Batra)): 6.19
pIC50 [11]: < 4.30
pIC50 ([12]; Batra assay): 6.24
pIC50 ([3]; Batra assay, read-out: Pfal (K1) IC50 (Batra)): 6.19

CC(=O)N(C1=NC(=O)/C(=C/c2cc(C)n(-c3ccc(F)cc3)c2C)S1)c1ccccc1 [OSM-S-9]
pIC50 [13]: 7.55
pIC50 [11]: < 4.30

Cc1cc(/C=C2\SC(=Nc3ccccc3)NC2=O)c(C)n1-c1ccccc1 [OSM-S-35]
IC50 [5]: > 31600 nM
pIC50 [11]: < 4.30
inhibition at 40 µM [14]: 57%

Cc1cc(/C=C2\S/C(=N\c3ccccc3)NC2=O)c(C)n1-c1ccc(C(F)(F)F)cc1 [OSM-S-38]
inhibition at 1 µM ([6]; female gametocytes): 20.5%
inhibition at 1 µM ([6]; male gametocytes): 26.5%
pIC50 [13]: 8.40
pIC50 [11]: < 4.30
CC50 [15]: > 50000 nM

Cc1cc(/C=C2\S/C(=N\c3ccccc3)NC2=O)c(C)n1-c1cc(C(F)(F)F)cc(C(F)(F)F)c1 [OSM-S-39]
inhibition at 1 µM ([6]; female gametocytes): 31.3%
inhibition at 1 µM ([6]; male gametocytes): 36.1%
pIC50 [13]: 8.59
pIC50 [11]: < 4.30

Cc1cc(/C=C2\SC(=Nc3ccccc3)N(CC#N)C2=O)c(C)n1-c1ccc(C(F)(F)F)cc1 [OSM-S-42]
pIC50 [16]: < 4.30

Cc1cc(/C=C2\SC(=Nc3ccccc3)N(c3ccccc3)C2=O)c(C)n1-c1ccc(C(F)(F)F)cc1 [OSM-S-52]
pIC50 [16]: < 4.30

Cc1cc(/C=C2\SC(=Nc3ccccc3)N(C3CCCC3)C2=O)c(C)n1-c1ccc(C(F)(F)F)cc1 [OSM-S-54]
pIC50 [16]: < 4.30

COc1ccc(-n2c(C)cc(/C=C3\SC(=Nc4ccccc4)NC3=O)c2C)cc1 [OSM-S-111]
inhibition at 1 µM ([6]; male gametocytes): 21.1%
microsomal CLint ([17]; read-out: CLint HLM (Monash)): 8 µL/min/mg
half-life ([17]; read-out: t1/2 HLM (Monash)): 3.45 h
microsomal CLint ([18]; read-out: 0.4 / CLint, in vitro / (mL/min/mg protein)): 0.0371 mL/min/mg
half-life ([18]; read-out: Protein Conc. (mg/mL): / Degradation half-life /): 0.777 h
pIC50 [13]: 6.16
pIC50 [19]: 6.46
microsomal CLint ([20]; read-out: CLint HLM (Monash)): 8 µL/min/mg
half-life ([20]; read-out: t1/2 HLM (Monash)): 3.45 h
pIC50 ([9]; read-out: Pfal IC50 (Guy)): 6.83
pIC50 ([10]; read-out: Pfal (K1) IC50 (Guy)): 6.69
pIC50 [21]: 6.46
pIC50 ([12]; Guy assay): 6.83
pIC50 ([3]; Guy assay, read-out: Pfal (K1) IC50 (Guy)): 6.69
inhibition at 40 µM [14]: 32%
CC50 [15]: 4390 nM

CCc1nc(N)nc(N)c1-c1ccc(Cl)cc1 [Pyrimethamine]
pIC50 [2]: 7.96
pIC50 [3, 22]: 4.92
CC50 [4]: 13900 nM

COc1ccc2nc3cc(Cl)ccc3c(Nc3cc(CN4CCCC4)c(O)c(CN4CCCC4)c3)c2n1 [Pyronaridine]
pIC50 [2]: 7.82
pIC50 [3, 22]: 7.67
CC50 [4]: 7700 nM

COc1ccc(-n2ccnc2SCC(=O)Nc2cc(C(F)(F)F)ccc2Cl)c(OC)c1 [TCMDC-123822]
pIC50 [1]: 7.32

— publication PMC5084075 (ACS Central Science, 2016)
